Columns and labels:
[1] = target: T1, hRIPK1 (aa 1-375) fusion protein (Homo sapiens, UniProt Q13546); assay: ADP-Glo kinase assay: catalytic activity of RIPK1 (autophosphorylation, conversion of ATP to ADP); type: biochemical
T1 construct: hRIPK1 (aa 1-375) fusion protein
T1 sequence (Q13546 1-375): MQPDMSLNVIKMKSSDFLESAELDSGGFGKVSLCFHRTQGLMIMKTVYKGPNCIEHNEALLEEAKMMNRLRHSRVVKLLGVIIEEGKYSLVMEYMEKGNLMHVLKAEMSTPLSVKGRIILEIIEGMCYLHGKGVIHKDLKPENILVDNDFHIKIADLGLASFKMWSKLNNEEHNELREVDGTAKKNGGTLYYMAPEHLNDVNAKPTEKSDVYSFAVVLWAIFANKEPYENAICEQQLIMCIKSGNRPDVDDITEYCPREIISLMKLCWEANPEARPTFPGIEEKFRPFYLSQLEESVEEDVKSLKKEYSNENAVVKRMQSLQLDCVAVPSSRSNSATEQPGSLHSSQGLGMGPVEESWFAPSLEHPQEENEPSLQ
In short: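 The readout was ADP-Glo luminescence after a 240 min rt autophosphorylation reaction with 50 μM ATP, following 30 min preincubation of 3.6 μg/ml hRIPK1 (aa 1-375) fusion with compound at 33300-1.69 nM final in 1% DMSO. Values came from Levenberg-Marquardt nonlinear fits.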

[2] = test system: U937 cells; assay: Cellular assay in U937 cells: activity of RIPK1 inhibitors on TNFα/zVAD.fmk-induced cell death (necroptosis), CellTiter 96 AQueous (MTS) readout; type: cell-based; settings: Homo sapiens, U-937
In short: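 Necroptosis was measured by viable-cell MTS reduction (4 h, absorbance 490 nm) after overnight (18–24 h) 37° C culture. Cell suspensions of U937 cells carried TNFα (100 ng/ml) plus zVAD.fmk (50 μM) before compound was added. A 10-point curve (10 μM–0.26 nM or 1 μM–0.07 nM) was run in duplicate, normalised to the control lacking TNFα/zVAD.fmk.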

| SMILES | IC50 [1] [nM] | IC50 [2] [nM] |
| --- | --- | --- |
| N#Cc1ccc2c(cnn2C[C@H]2CC[C@H](C(=O)N3OCC[C@H]3c3cnccn3)CC2)c1 [compound 218, trans-1-[[4-[(3S)-3-pyrazin-2-ylisoxazolidine-2-carbonyl]cyclohexyl]methyl]indazole-5-carbonitrile] | 20 | 13 |
| Cc1cn2cc(C[C@H]3CC[C@H](C(=O)N4OCC[C@H]4c4cc(F)cc(F)c4)CC3)cc(F)c2n1 [compound 281, trans-[(3S)-3-(3,5-difluorophenyl)isoxazolidin-2-yl]-[4-[(8-fluoro-2-methyl-imidazo[1,2-a]pyridin-6-yl)methyl]cyclohexyl]methanone] | 19 | 5 |
| CNC(=O)c1cc(F)cc(C[C@H]2CC[C@H](C(=O)N3OCC[C@H]3c3cncc(F)c3)CC2)c1 [compound 160, trans-3-fluoro-5-[[4-[(3S)-3-(5-fluoro-3-pyridyl)isoxazolidine-2-carbonyl]cyclohexyl]methyl]-N-methyl-benzamide] | 6 | 11 |
| N#Cc1cc(F)cc([C@@H]2CCON2C(=O)[C@H]2CC[C@H](Cn3cnc4cc(F)c(C#N)cc43)CC2)c1 [compound 13, trans-1-((4-((S)-3-(3-cyano-5-fluorophenyl)isoxazolidine-2-carbonyl)cyclohexyl)methyl)-5-fluoro-1H-benzo[d]imidazole-6-carbonitrile] | 33 | 5 |
| Cc1ccc(C[C@H]2CC[C@H](C(=O)N3OCC[C@H]3c3cnccn3)CC2)nn1 [compound 357, trans-[4-[(6-methylpyridazin-3-yl)methyl]cyclohexyl]-[(3S)-3-pyrazin-2-ylisoxazolidin-2-yl]methanone] | 138 | 531 |
| N#Cc1cc(F)cc([C@@H]2CCON2C(=O)[C@H]2CC[C@H](Cc3ccc4ncnn4c3)CC2)c1 [compound 142, trans-3-fluoro-5-[(3S)-2-[4-([1,2,4]triazolo[1,5-a]pyridin-6-ylmethyl)cyclohexanecarbonyl]isoxazolidin-3-yl]benzonitrile] | 38 | 4 |
| Cc1cc(C[C@H]2CC[C@H](C(=O)N3OCC[C@H]3c3ccc(F)cc3)CC2)cn2c(C)nnc12 [compound 319, trans-[4-[(3,8-dimethyl-[1,2,4]triazolo[4,3-a]pyridin-6-yl)methyl]cyclohexyl]-[(3S)-3-(4-fluorophenyl)isoxazolidin-2-yl]methanone] | 14 | 33 |
| Cc1nc([C@@H]2CCON2C(=O)[C@H]2CC[C@H](Cc3ccc4nnc(C)n4c3C)CC2)cs1 [compound 375, [4-(3,5-Dimethyl-[1,2,4]triazolo[4,3-a]pyridin-6-ylmethyl)-cyclohexyl]-[(S)-3-(2-methyl-thiazol-4-yl)-isoxazolidin-2-yl]-methanone] | 63 | 10 |
| Cc1ccc([C@@H]2CCON2C(=O)[C@H]2CC[C@H](Cc3cc(F)c4nc(C)cn4c3)CC2)cn1 [compound 351, trans-[4-[(8-fluoro-2-methylimidazo[1,2-a]pyridin-6-yl)methyl]cyclohexyl]-[(3S)-3-(6-methylpyridin-3-yl)-1,2-oxazolidin-2-yl]methanone] | 210 | 149 |
| O=C([C@H]1CC[C@H](Cn2cc3cc(F)ccc3n2)CC1)N1OCC[C@H]1c1cc(F)cc(F)c1 [compound 57, trans-((S)-3-(3,5-difluorophenyl)isoxazolidin-2-yl)(4-((5-fluoro-2H-indazol-2-yl)methyl)cyclohexyl)methanone] | 27 | 41 |
| O=C([C@H]1CC[C@H](Cc2ccc3ncnn3c2)CC1)N1OCC[C@H]1c1cncc(F)c1 [compound 338, trans-[(3S)-3-(5-fluoropyridin-3-yl)-1,2-oxazolidin-2-yl]-[4-([1,2,4]triazolo[1,5-a]pyridin-6-ylmethyl)cyclohexyl]methanone] | 29 | 45 |
| Cc1cc(-c2cncc(C[C@H]3CC[C@H](C(=O)N4OCC[C@H]4c4cnccn4)CC3)c2)n(C)n1 [compound 305, trans-[4-[[5-(2,5-dimethylpyrazol-3-yl)-3-pyridyl]methyl]cyclohexyl]-[(3S)-3-pyrazin-2-ylisoxazolidin-2-yl]methanone] | 29 | 43 |
| Cc1ccc([C@@H]2CCON2C(=O)[C@H]2CC[C@H](Cc3ccc4nc(N)nn4c3)CC2)cn1 [compound 391, [4-[(2-amino-[1,2,4]triazolo[1,5-a]pyridin-6-yl)methyl]cyclohexyl]-[(3S)-3-(6-methylpyridin-3-yl)-1,2-oxazolidin-2-yl]methanone] | 63 | 64 |
| Cc1nc2cc(F)ccc2n1C[C@H]1CC[C@H](C(=O)N2OCC[C@H]2c2cc(F)cc(F)c2)CC1 [compound 51, trans-((S)-3-(3,5-difluorophenyl)isoxazolidin-2-yl)(4-((5-fluoro-2-methyl-1H-benzo[d]imidazol-1-yl)methyl)cyclohexyl)methanone] | 34 | 17 |
| N#Cc1cncc([C@@H]2CCON2C(=O)[C@H]2CC[C@H](Cn3ccc4ncc(C#N)cc43)CC2)c1 [compound 108, trans-1-((4-((S)-3-(5-cyanopyridin-3-yl)isoxazolidine-2-carbonyl)cyclohexyl)methyl)-1H-pyrrolo[3,2-b]pyridine-6-carbonitrile] | 27 | 18 |
| NC(=O)c1ccc2cn(C[C@H]3CC[C@H](C(=O)N4OCC[C@H]4c4cnccn4)CC3)nc2c1 [Compound 228, trans-2-[[4-[(3S)-3-pyrazin-2-ylisoxazolidine-2-carbonyl]cyclohexyl]methyl]indazole-6-carboxamide] | 65 | 191 |
| N#Cc1cc(F)cc([C@@H]2CCON2C(=O)[C@H]2CC[C@H](Cn3ncc4ncc(C#N)cc43)CC2)c1 [compound 27, trans-1-((4-((S)-3-(3-cyano-5-fluorophenyl)isoxazolidine-2-carbonyl)cyclohexyl)methyl)-1H-pyrazolo[4,3-b]pyridine-6-carbonitrile] | 6 | 2 |
| Cc1nc2c(C)cc(C[C@H]3CC[C@](C)(C(=O)N4OCC[C@H]4c4cnc(C)c(F)c4)CC3)cn2n1 [compound 403, trans-[4-[(2,8-dimethyl-[1,2,4]triazolo[1,5-a]pyridin-6-yl)methyl]-1-methylcyclohexyl]-[(3S)-3-(5-fluoro-6-methylpyridin-3-yl)-1,2-oxazolidin-2-yl]methanone] | 15 | 2 |
| O=C([C@H]1CC[C@H](Cn2cnc3cc(F)ccc32)CC1)N1OCC[C@H]1c1cnccn1 [compound 92, trans-(4-((5-fluoro-1H-benzo[d]imidazol-1-yl)methyl)cyclohexyl)((S)-3-(pyrazin-2-yl)isoxazolidin-2-yl)methanone] | 75 | 132 |
| Cc1ccc([C@@H]2CCON2C(=O)[C@H]2CC[C@H](Cc3ccnn3C)CC2)cn1 [compound 397, trans-[4-[(2-methylpyrazol-3-yl)methyl]cyclohexyl]-[(3S)-3-(6-methylpyridin-3-yl)-1,2-oxazolidin-2-yl]methanone] | 61 | 163 |
| NC(=O)c1cc(C[C@H]2CC[C@H](C(=O)N3OCC[C@H]3c3cnccn3)CC2)ccc1F [compound 193, trans-2-fluoro-5-[[4-[(3S)-3-pyrazin-2-ylisoxazolidine-2-carbonyl]cyclohexyl]methyl]benzamide] | 10 | 14 |
| O=C([C@H]1CC[C@H](Cc2ccc(CCO)c(F)c2)CC1)N1OCC[C@H]1c1cc(F)cc(F)c1 [compound 280, trans-[(3S)-3-(3,5-difluorophenyl)isoxazolidin-2-yl]-[4-[[3-fluoro-4-(2-hydroxyethyl)phenyl]methyl]cyclohexyl]methanone] | 13 | 7 |
| COc1cncc([C@@H]2CCON2C(=O)[C@H]2CC[C@H](Cn3ccc4cc(C(N)=O)ccc43)CC2)n1 [compound 253, trans-1-[[4-[(3S)-3-(6-methoxypyrazin-2-yl)isoxazolidine-2-carbonyl]cyclohexyl]methyl]indole-5-carboxamide] | 18 | 175 |
| Cc1nc2ccc(C[C@H]3CC[C@H](C(=O)N4OCC[C@H]4c4ccc(F)c(F)c4)CC3)cn2n1 [compound 261, trans-[(3S)-3-(3,4-difluorophenyl)isoxazolidin-2-yl]-[4-[(2-methyl-[1,2,4]triazolo[1,5-a]pyridin-6-yl)methyl]cyclohexyl]methanone] | 23 | 17 |
| NC(=O)c1cnc2cnn(C[C@H]3CC[C@H](C(=O)N4OCC[C@H]4c4cc(F)cc(F)c4)CC3)c2c1 [compound 79, trans-1-((4-((S)-3-(3,5-difluorophenyl)isoxazolidine-2-carbonyl)cyclohexyl)methyl)-1H-pyrazolo[4,3-b]pyridine-6-carboxamide] | 22 | 13 |
| CNC(=O)c1cc(F)cc(C[C@H]2CC[C@H](C(=O)N3OCC[C@H]3c3ccc(F)cc3)CC2)c1 [compound 165, trans-3-fluoro-5-[[4-[(3S)-3-(4-fluorophenyl)isoxazolidine-2-carbonyl]cyclohexyl]methyl]-N-methyl-benzamide] | 5 | 7 |

— patent US20260158009A1 (GENZYME CORPORATION, priority 2023, published 2026)
